Our source for the IC50 values is US12240827B2, “Serotonin 5-HT2B inhibitory compounds” (Zoetis Services LLC, priority 2019, dated 2025).

For orientation: IC50 means the concentration needed to halve the response being measured.

Each structure is given as a SMILES string. A value given as a limit tells only on which side of the number the result lay.

In one test the target is T1, hERG (Homo sapiens, UniProt Q12809).
T1 construct: stably transfected with full length hERG cDNA; expressed in transfected cells; host or cells: HEK293
T1 sequence (Q12809 whole entry): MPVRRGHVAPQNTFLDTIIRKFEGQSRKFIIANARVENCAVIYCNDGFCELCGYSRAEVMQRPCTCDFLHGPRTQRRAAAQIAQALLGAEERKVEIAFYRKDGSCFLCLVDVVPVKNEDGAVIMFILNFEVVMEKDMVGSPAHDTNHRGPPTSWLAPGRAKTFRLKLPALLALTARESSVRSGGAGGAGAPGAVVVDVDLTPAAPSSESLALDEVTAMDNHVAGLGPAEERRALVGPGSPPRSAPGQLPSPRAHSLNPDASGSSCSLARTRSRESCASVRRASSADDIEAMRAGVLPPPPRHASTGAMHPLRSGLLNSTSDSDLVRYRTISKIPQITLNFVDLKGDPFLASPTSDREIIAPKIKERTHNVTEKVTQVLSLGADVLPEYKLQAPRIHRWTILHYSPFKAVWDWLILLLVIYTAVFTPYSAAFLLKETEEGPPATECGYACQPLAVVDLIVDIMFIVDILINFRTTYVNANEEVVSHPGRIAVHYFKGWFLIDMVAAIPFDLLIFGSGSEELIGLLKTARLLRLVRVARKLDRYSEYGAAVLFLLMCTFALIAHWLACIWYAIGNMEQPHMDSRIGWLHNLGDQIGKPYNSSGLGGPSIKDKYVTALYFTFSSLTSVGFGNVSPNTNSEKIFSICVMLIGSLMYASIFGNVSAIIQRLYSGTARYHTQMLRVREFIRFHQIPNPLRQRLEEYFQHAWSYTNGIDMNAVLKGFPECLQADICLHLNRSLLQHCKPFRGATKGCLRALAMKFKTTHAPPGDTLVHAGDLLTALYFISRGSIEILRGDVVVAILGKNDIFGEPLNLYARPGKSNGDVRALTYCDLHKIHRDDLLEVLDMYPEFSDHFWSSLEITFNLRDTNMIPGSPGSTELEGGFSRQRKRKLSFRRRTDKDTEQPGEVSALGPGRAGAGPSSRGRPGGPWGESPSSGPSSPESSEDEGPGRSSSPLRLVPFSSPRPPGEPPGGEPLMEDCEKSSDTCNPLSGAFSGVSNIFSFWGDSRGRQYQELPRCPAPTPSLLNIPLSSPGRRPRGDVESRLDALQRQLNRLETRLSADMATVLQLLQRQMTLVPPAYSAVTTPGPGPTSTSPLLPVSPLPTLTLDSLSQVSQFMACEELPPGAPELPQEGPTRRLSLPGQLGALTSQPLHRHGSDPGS
Description: hERG in-vitro assay, IonWorks Barracuda population patch clamp. Format: cell-based. The conditions noted are these: hERG/HEK293 cells; hERG current block, 5 minutes exposure. As for the experimental part:
Stock solutions of compounds of the invention and positive control (cisapride; 0.001-3 μM) were prepared in DMSO. Stock solutions were diluted in a HEPES-buffered physiological saline solution. Test and control solutions contained 0.3% DMSO. Human hERG/HEK293 renal epithelial cells stably transfected with full length hERG cDNA were cultured in Dulbecco's Modified Eagle Medium/Nutrient Mixture F-12 (D-MEM/F-12) supplemented with 10% fetal bovine serum, 100 U/mL penicillin G sodium, 100 μg/mL streptomycin sulfate and 500 μg/mL G418. Before testing, cells in culture dishes were rinsed with Hank's Balanced Salt Solution (HBSS) and detached with accutase. Immediately before use in the IonWorks Barracuda™ system, the cells were washed with buffered physiological saline solution (HB-PS) buffer to remove the accutase and re-suspended in 5 mL of HB-PS. The test article effects were evaluated using IonWorks Barracuda™ systems (Molecular Devices Corporation, Union City, CA). HEPES-buffered intracellular solution for whole cell recordings was loaded into the intracellular compartment of the Population Patch Clamp™ (PPC) planar electrode.
Extracellular buffer (HB-PS) was loaded into PPC planar electrode plate wells (11 μL/well). The cell suspension was pipetted into the wells of the PPC planar electrode (9 μL/well). After establishment of a whole-cell configuration (the perforated patch), membrane currents were recorded using patch clamp amplifier in the IonWorks Barracuda™ system. The current recordings were performed one (1) time before test article application to the cells (baseline) and one (1) time after application of the test article. Test article concentrations were applied to naïve cells. Each application consisted of addition of 20 μL of 2× concentrated test article solution to the total 40 μL of final volume of the extracellular well of the PPC plate. Duration of exposure to each compound concentration was five (5) minutes. hERG current was elicited using a pulse pattern with fixed amplitudes (the first conditioning pre-pulse to 10 mV for 60 second, the second conditioning pre-pulse: −90 mV for 20 ms; the test pulse: +40 mV for 100 ms) from a holding potential of 0 mV (‘zero holding’ procedure). hERG current was measured as a difference between the peak current at 1 ms and at the end of test step to +40 mV. Data acquisition and analyses were performed using the IonWorks Barracuda™ system operation software (version 2.0.2). The decrease in current amplitude after test article application was used to calculate the percent block relative to control. Results for each test article concentration (n≥1) were averaged; the mean and standard deviation values were calculated and used to generate dose-response curves.
Background: hERG is a cardiac potassium channel; its block is linked to QT prolongation.

For the next test, the target named is T2, canine 5-HT2B receptor (Canis lupus familiaris, UniProt Q50DZ8).
T2 construct: expressed in transfected cells; host or cells: CHO-K1
T2 sequence (Q50DZ8 1-434): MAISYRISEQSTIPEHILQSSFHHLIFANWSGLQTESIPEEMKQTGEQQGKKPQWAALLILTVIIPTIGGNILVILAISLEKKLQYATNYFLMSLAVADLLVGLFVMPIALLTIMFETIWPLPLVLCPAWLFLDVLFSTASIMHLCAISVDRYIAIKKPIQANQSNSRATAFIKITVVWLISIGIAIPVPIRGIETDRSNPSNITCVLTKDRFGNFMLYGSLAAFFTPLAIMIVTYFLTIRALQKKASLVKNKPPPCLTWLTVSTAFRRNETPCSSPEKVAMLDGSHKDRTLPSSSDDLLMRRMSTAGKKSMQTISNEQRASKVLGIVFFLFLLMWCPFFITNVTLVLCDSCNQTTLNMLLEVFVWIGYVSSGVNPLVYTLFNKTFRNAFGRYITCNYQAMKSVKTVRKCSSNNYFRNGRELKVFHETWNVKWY
Description: Canine 5-HT2B (c5-HT2B) in-vitro assay, FLIPR calcium response. It is filed as cell-based. Particulars: CHO-K1 cells stably expressing canine 5-HT2B receptor; inhibition of EC80 serotonin calcium response. On the procedure:
CHO-K1 cells stably expressing the canine 5-HT2B receptor were seeded at 20,000 cells per well in 20 μl culture media (DMEM with GlutaMAX™ high glucose+5% dialyzed FBS+10 mM HEPES+1×MEM Non-Essential Amino Acids of a 384-well black plate with clear bottom for at least 18 hours at 37° C. and 5% CO2. The cell plate was loaded with 20 μl/well of the FLIPR® Calcium 5 Assay kit prepared in HBSS containing calcium and magnesium supplemented with 20 mM HEPES and 5 mM Probenecid at pH 7.4 and incubated at 37° C. and 5% CO2 for 30 minutes and then an additional 30 minutes at room temperature. The intracellular calcium response was measured using the FLIPR Tetra® instrument measuring the kinetic response of the Calcium 5 dye at an excitation wavelength of 470-495 nm and emission wavelength of 515-575 nm at room temperature. The cells were initially challenged with a 5× concentration of the antagonist (10 μl/well) after an initial baseline recording and the calcium response was recorded for almost 2 minutes. After the completion of the initial antagonist challenge, the cell plate was incubated at room temperature in the FLIPR Tetra® instrument for 10 minutes. Finally, a second kinetic assay was performed after the 10 minute incubation at room temperature to measure the inhibitory response of the EC80 concentration of serotonin (15 μl/well) after an initial baseline recording. The IC50 concentration was determined for each antagonist tested.

`O=C(c1ccc(-c2ccccc2F)cc1)N1CCC(c2ncc[nH]2)CC1` [CA-7, (4-(1H-imidazol-2-yl)piperidin-1-yl)(2′-fluoro-[1,1′-biphenyl]-4-yl)methanone, reference compound]: the values for the IC50 against hERG and at canine 5-HT2B receptor were 1100 nM and 0.09 nM, respectively.
Turning to `O=C(c1ccc2c(ccn2-c2ccccc2)c1)N1CCC(c2ncc[nH]2)CC1` [Example 21, (4-(1H-imidazol-2-yl)piperidin-1-yl)(1-phenyl-1H-indol-5-yl)methanone], the IC50 was 4310 nM at hERG and 3.1 nM on canine 5-HT2B receptor.
For `O=C(c1ccc(-c2cccc3c2OCO3)cc1)N1CCC(c2ncc[nH]2)CC1` [Example 20, (4-(1H-imidazol-2-yl)piperidin-1-yl)(4-(benzo[d][1,3]dioxol-4-yl)phenyl)methanone] the same measures were 3390 nM and 0.01 nM.
Regarding `O=C(c1ccc(-c2ccc(F)cc2)cc1)N1CCC(Nc2ncc[nH]2)CC1` [Example 1, (4-((1H-imidazol-2-yl)amino)piperidin-1-yl)(4′-fluoro-[1,1′-biphenyl]-4-yl)methanone], the IC50 was found to be 1540 nM against hERG and 2 nM at canine 5-HT2B receptor.
For `Cc1c[nH]c(C2CCN(C(=O)c3ccc(-c4ccc(F)cc4)cc3)CC2)n1` [CA-6, (4′-fluoro-[1,1′-biphenyl]-4-yl)(4-(4-methyl-1H-imidazol-2-yl)piperidin-1-yl)methanone, reference compound], the results for the IC50 at hERG and at canine 5-HT2B receptor were less than 30 nM and 7.3 nM, respectively.
For `O=C(c1ccc(-c2cccc3[nH]ccc23)cc1)N1CCC(c2ncc[nH]2)CC1` [Example 17, (4-(1H-imidazol-2-yl)piperidin-1-yl)(4-(1H-indol-4-yl)phenyl)methanone] the same measures were 5870 nM and 0.04 nM.
As to `O=C(c1ccc(-c2ccc3c(c2)OCO3)cc1)N1CCC(c2ncc[nH]2)CC1` [Example 13, (4-(1H-imidazol-2-yl)piperidin-1-yl)(4-(benzo[d][1,3]dioxol-5-yl)phenyl)methanone], the IC50 at hERG is 1730 nM; at canine 5-HT2B receptor, 1.4 nM.
The corresponding values for `O=C(c1ccc(-c2ccc(C(F)(F)F)cc2)cc1)N1CCC(Cc2ncc[nH]2)CC1` [Example 12, (4-((1H-imidazol-2-yl)methyl)piperidin-1-yl)(4′-(trifluoromethyl)-[1,1′-biphenyl]-4-yl)methanone] are 4840 nM and 63.9 nM.
For the molecule `O=C(c1ccc(-c2ccc(C(F)(F)F)cc2)cc1)N1CCC(c2ncc[nH]2)CC1` [Example 3, (4-(1H-imidazol-2-yl)piperidin-1-yl)(4′-(trifluoromethyl)-[1,1′-biphenyl]-4-yl)methanone], the IC50 against hERG amounted to 3480 nM; on canine 5-HT2B receptor, 5.1 nM.
As for `O=C(c1ccc2c(-c3ccccc3)c[nH]c2c1)N1CCC(c2ncc[nH]2)CC1` [Example 32, (4-(1H-imidazol-2-yl)piperidin-1-yl)(3-phenyl-1H-indol-6-yl)methanone], the IC50 was determined as 15200 nM against hERG and 7.3 nM on canine 5-HT2B receptor.
As to `Cc1c[nH]c(C2CCN(C(=O)c3ccc(-c4c[nH]c5ccc(F)cc45)cc3)CC2)n1` [Example 34, (4-(5-fluoro-1H-indol-3-yl)phenyl)(4-(4-methyl-1H-imidazol-2-yl)piperidin-1-yl)methanone], the IC50 was 13900 nM against hERG and 21 nM on canine 5-HT2B receptor.
Regarding `O=C(c1ccc(-c2ccc(C(F)F)cc2)cc1)N1CCC(Nc2ncc[nH]2)CC1` [Example 33, (4-((1H-imidazol-2-yl)amino)piperidin-1-yl)(4′-(difluoromethyl)-[1,1′-biphenyl]-4-yl)methanone], the IC50 is 5290 nM against hERG and 18.6 nM at canine 5-HT2B receptor.
The corresponding values for `Cc1cnc(C2CCN(C(=O)c3ccc(-c4ccc(C(F)(F)F)cc4)cc3)CC2)[nH]1` [Example 4, (4-(5-methyl-1H-imidazol-2-yl)piperidin-1-yl)(4′-(trifluoromethyl)-[1,1′-biphenyl]-4-yl)methanone] are 1130 nM and 21.9 nM.
For `O=C(c1ccc2c(c1)oc1ccccc12)N1CCC(c2ncc[nH]2)CC1` [Example 15, (4-(1H-imidazol-2-yl)piperidin-1-yl)(dibenzo[b,d]furan-3-yl)methanone] the same measures were 2010 nM and 0.65 nM.
As for `O=C(c1ccc(-n2ccc3ccccc32)cc1)N1CCC(c2ncc[nH]2)CC1` [Example 18, (4-(1H-imidazol-2-yl)piperidin-1-yl)(4-(1H-indol-1-yl)phenyl)methanone], the IC50 on hERG turned out to be 3400 nM; on canine 5-HT2B receptor, 0.01 nM.
With `Cc1c[nH]c(C2CCN(C(=O)c3ccc(-c4c(C)[nH]c5ccccc45)cc3)CC2)n1` [Example 26, (4-(4-methyl-1H-imidazol-2-yl)piperidin-1-yl)(4-(2-methyl-1H-indol-3-yl)phenyl)methanone], the results for the IC50 against hERG and on canine 5-HT2B receptor were 13100 nM and 0.84 nM, respectively.
Consider `Cc1cnc(C2CCN(C(=O)c3ccc(-c4n[nH]c5ccccc45)cc3)CC2)[nH]1` [Example 6, (4-(1H-indazol-3-yl)phenyl)(4-(5-methyl-1H-imidazol-2-yl)piperidin-1-yl)methanone], for which the IC50 at hERG turned out to be 35500 nM; on canine 5-HT2B receptor it was 0.65 nM.
Consider `O=C(c1ccc(-c2ccc(C(F)F)cc2)cc1)N1CCC(c2ncc[nH]2)CC1` [Example 16, (4-(1H-imidazol-2-yl)piperidin-1-yl)(4′-(difluoromethyl)-[1,1′-biphenyl]-4-yl)methanone], for which the IC50 on hERG was found to be 2740 nM; on canine 5-HT2B receptor, 0.31 nM.
Take `O=C(c1ccc(-c2c[nH]c3ccccc23)cc1)N1CCC(c2ncc[nH]2)CC1` [Example 23, (4-(1H-imidazol-2-yl)piperidin-1-yl)(4-(1H-indol-3-yl)phenyl)methanone]: the 50% inhibitory concentration (IC50) at hERG stood at 24800 nM; at canine 5-HT2B receptor it was 0.02 nM.
In the case of `O=C(c1ccc(Oc2ccccc2)cc1)N1CCC(c2ncc[nH]2)CC1` [Example 8, (4-(1H-imidazol-2-yl)piperidin-1-yl)(4-phenoxyphenyl)methanone], the IC50 at hERG is 3140 nM; on canine 5-HT2B receptor, 0.64 nM.
As to `O=C(c1ccc(-c2ccc(C(F)(F)F)s2)cc1)N1CCC(c2ncc[nH]2)CC1` [Example 22, (4-(1H-imidazol-2-yl)piperidin-1-yl)(4-(5-(trifluoromethyl)thiophen-2-yl)phenyl)methanone], the IC50 at hERG stood at 2800 nM; on canine 5-HT2B receptor it was 20.5 nM.
With `O=C(c1ccc(Nc2ccccc2)cc1)N1CCC(c2ncc[nH]2)CC1` [Example 9, (4-(1H-imidazol-2-yl)piperidin-1-yl)(4-(phenylamino)phenyl)methanone], the IC50 at hERG came to 3850 nM; at canine 5-HT2B receptor, 0.42 nM.
Regarding `Cc1cnc(C2CCN(C(=O)c3ccc(-c4c[nH]c5ccccc45)cc3)CC2)[nH]1` [Example 5, (4-(1H-indol-3-yl)phenyl)(4-(5-methyl-1H-imidazol-2-yl)piperidin-1-yl)methanone], the IC50 at hERG worked out at 6630 nM; on canine 5-HT2B receptor, 0.33 nM.
With `O=C(c1ccc(-c2cccc(Cl)c2)cc1)N1CCC(c2ncc[nH]2)CC1` [Example 10, (4-(1H-imidazol-2-yl)piperidin-1-yl)(3′-chloro-[1,1′-biphenyl]-4-yl)methanone], the results for the IC50 at hERG and at canine 5-HT2B receptor were 2770 nM and 0.51 nM, respectively.
